# Measurements from patent publication US7122360B1, “Polypeptides, polynucleotides and uses thereof” (University of Dundee, priority 1998, dated 2006).
# Peptide text beside a SMILES is read from it.
# Tests used:
# MAPKAP-K1a [1] = target: T1, MAPKAP-K1a (Rattus norvegicus, UniProt Q63531); assay: Substrate phosphorylation kinetics with GST-MAPKAP-K1a; format: biochemical
# T1 construct: made in house; host or cells: human embryonic kidney 293 cells, TPA-stimulated
# Experimental: (§1) FIG. 8. […] (A) Comparison of the substrate specificities of MSK1, MAPKAP-K1a and MAPKAP-K1b towards the indicated peptides and CREB. Phosphorylation and analysis was carried out as described in Materials and Methods. The standard errors for all reported kinetic constants were within <+20% (SEM), and the data is reported as mean values for 2 independent experiments. The Vmax values are reported as a percentage of the value obtained using Crosstide ([…], peptide 1 (SEQ ID NO:16)) as a substrate. The peptide […] (SEQ ID NO:18) corresponding to residues 126–136 of CREB is termed CREBtide. The serine residues shown in bold correspond to the phosphorylated serine residues on the peptides. […] (B) GST-MSK1 (solid bars), GST-MAPKAPK-1a (open bars), MAPKAP-K-1b (speckled bars) or GST-MAPKAP-K2 (diagonal bars) were assayed with the indicated substrates. […] The phosphorylation of CREB by MAPKAP-K2 shown in the figure is corrected to show only the contribution of Ser133 phosphorylation to the total incorporation of phosphate into CREB. […]
# (§2) Phosphorylation of CREB and HSP27 by MSK1 and MAPKAP-K1a/b (see FIG. 8). MSK1 and MAPKAP-K1a expressed as GST fusion proteins were purified from TPA stimulated 293 cells (FIG. 3) and MAPKAP-K1b was purified from rabbit skeletal muscle (Sutherland et al., 1993). […] The ^32P-radioactivity incorporated was then determined by Cerenkov counting. […]
# MAPKAP-K1b = target: T2, MAPKAP-K1b (Oryctolagus cuniculus, UniProt A0A5F9C4L9); assay: Substrate phosphorylation kinetics with MAPKAP-K1b; format: biochemical, rabbit
# T2 construct: MAPKAP-K1b was purified from rabbit skeletal muscle (Sutherland et al., 1993); from tissue; host or cells: rabbit skeletal muscle
# T2 sequence (A0A5F9C4L9 1-740): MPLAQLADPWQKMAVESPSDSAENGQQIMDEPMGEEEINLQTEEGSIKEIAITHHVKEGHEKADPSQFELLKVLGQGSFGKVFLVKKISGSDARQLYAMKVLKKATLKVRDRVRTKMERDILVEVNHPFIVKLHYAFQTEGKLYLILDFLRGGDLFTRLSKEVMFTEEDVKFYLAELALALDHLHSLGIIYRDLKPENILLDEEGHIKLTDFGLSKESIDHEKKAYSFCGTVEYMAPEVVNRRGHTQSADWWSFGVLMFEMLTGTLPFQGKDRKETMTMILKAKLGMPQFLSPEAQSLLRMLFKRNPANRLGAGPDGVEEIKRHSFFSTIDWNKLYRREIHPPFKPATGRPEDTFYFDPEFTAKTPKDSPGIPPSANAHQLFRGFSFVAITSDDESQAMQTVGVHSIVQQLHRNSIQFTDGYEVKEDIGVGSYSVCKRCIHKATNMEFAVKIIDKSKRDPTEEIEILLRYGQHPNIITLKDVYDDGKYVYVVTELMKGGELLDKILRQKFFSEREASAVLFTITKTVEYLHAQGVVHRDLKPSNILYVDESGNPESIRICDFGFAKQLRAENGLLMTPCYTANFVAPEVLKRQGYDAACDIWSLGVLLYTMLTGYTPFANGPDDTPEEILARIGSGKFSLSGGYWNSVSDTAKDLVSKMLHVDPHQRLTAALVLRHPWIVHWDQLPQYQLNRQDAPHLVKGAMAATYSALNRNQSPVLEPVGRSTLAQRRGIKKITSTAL
# Experimental: as §1, §2
# MSK1 [2] = target: MSK1 (Homo sapiens, UniProt O75582); assay: Substrate phosphorylation kinetics with GST-MSK1; format: biochemical; design: generate a full length FLAG-MSK 1 construct in the pCMV5 mammalian expression; made in house; host or cells: human embryonic kidney 293 cells (TPA-stimulated before lysis)
# Chain of MSK1 (Homo sapiens, UniProt O75582) (O75582 whole entry): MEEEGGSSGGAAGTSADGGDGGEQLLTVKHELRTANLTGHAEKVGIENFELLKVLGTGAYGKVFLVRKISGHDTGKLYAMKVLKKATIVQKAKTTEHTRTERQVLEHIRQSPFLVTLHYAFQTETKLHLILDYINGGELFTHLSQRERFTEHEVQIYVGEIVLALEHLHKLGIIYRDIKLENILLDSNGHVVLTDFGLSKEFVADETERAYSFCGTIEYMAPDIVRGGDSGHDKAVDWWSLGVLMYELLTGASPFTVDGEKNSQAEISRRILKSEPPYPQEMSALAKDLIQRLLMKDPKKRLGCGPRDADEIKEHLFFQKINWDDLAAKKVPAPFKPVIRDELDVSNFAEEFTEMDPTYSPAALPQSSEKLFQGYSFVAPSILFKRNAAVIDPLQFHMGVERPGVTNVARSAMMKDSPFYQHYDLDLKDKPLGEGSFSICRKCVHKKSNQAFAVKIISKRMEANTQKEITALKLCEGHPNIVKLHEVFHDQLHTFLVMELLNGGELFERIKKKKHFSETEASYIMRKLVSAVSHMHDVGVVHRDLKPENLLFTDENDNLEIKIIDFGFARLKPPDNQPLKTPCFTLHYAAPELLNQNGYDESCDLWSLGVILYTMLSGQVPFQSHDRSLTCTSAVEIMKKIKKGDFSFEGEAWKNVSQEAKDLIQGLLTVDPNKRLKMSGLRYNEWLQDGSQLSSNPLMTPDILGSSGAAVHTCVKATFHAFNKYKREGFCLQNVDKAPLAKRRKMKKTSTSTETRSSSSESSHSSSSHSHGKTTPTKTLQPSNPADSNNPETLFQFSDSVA
# Experimental: FIG. 8. MSK1 phosphorylates CREB at Ser133. (A) Comparison of the substrate specificities of MSK1, MAPKAP-K1a and MAPKAP-K1b towards the indicated peptides and CREB. Phosphorylation and analysis was carried out as described in Materials and Methods. The standard errors for all reported kinetic constants were within <+20% (SEM), and the data is reported as mean values for 2 independent experiments. The Vmax values are reported as a percentage of the value obtained using Crosstide ([…], peptide 1 (SEQ ID NO:16)) as a substrate. The peptide […] (SEQ ID NO:18) corresponding to residues 126–136 of CREB is termed CREBtide. The serine residues shown in bold correspond to the phosphorylated serine residues on the peptides. […] 75% of the radioactivity applied to the column was recovered from the major ^32P-containing peptide at 13% acetonitrile (the remainder of the radioactivity eluted as numerous minor peaks). […]
# Phosphorylation of CREB and HSP27 by MSK1 and MAPKAP-K1a/b (see FIG. 8). MSK1 and MAPKAP-K1a expressed as GST fusion proteins were purified from TPA stimulated 293 cells (FIG. 3) and MAPKAP-K1b was purified from rabbit skeletal muscle (Sutherland et al., 1993). […] The ^32P-radioactivity incorporated was then determined by Cerenkov counting. […] The supernatant, containing 95% of the ^32P-radioactivity, was chromatographed on a Vydac C18 column as described in the legend to FIG. 8. […]
# MSK1 [3] = assay: Activation of transfected Flag-MSK1 in 293 cells; format: cell-based, human; conditions: stimulation with the agonist
# Experimental: FIG. 6. Effect of mutation of MSK1 on activation by TPA and UV in 293 cells. 293 cells were transiently transfected with DNA constructs expressing Flag epitope tagged wild type MSK1, N-terminal (NT) “kinase dead” MSK1 and C-terminal (CT) “kinase dead” MSK1. […] The cells were lysed and the MSK1 was immunoprecipitated from the lysates and assayed with Crosstide.
# Transfection of MSK1 into 293 cells. 293 cells were cultured on 10 cm diameter dishes and transfected with the pCMV5 vector encoding the Flag epitope tagged MSK1 constructs using a modified calcium phosphate method (Alessi et al., 1996b). 24 h post-transfection, the cells were deprived of serum for 16 h, stimulated with TPA or exposed to UV radiation, the cells were then lysed in 1 ml of ice cold Buffer A, centrifuged at 13,000×g for 5 min, and the Flag tagged MSK1 protein immunoprecipitated from aliquots of lysate (containing 25 μg protein) using 2 μg of FLAG antibody coupled to 5 (1 of Protein G-Sepharose.
# Immunoprecipitates were incubated, washed and assayed for MSK1 activity as described above.
# MAPKAP-K1a [4] = assay: Activation of overexpressed MAPKAP-K1a in 293 cells; format: cell-based, human; conditions: TPA stimulation, data not shown
# Source text: FIG. 7. MSK1 is mainly localised in the nucleus of cells and MAPKAP-K1a in the cytosol. […] Data is from three independent experiments. For MSK1 controls n=9, 9 and 14; for TPA n+10, 11 and 15. For MAPKAP-K1a controls total n=22; for TPA total n=9 (excluding cells with extensive clumps of immunoreactive material in the cytoplasm). Bars represent standard error of the mean calculated according to Cochran (1953). (C) Selected samples for MSK1 (C, unstimulated and D, TPA) and for MAPKAP-K1a (E, unstimulated) are shown to illustrate structures and labelling distributions. Bar is 500 nm.
# MSK1 is localised in nuclei and MAPKAP-K1a in the cytoplasm. The subcellular location of wild type MSK1 that was overexpressed in 293 cells was investigated by quantitative immunoelectron microscopy (FIG. 7). MSK1 was largely located in the nucleus of unstimulated cells. The density of MSK1 in the nuclear compartment was 12 to 30-fold higher than in the cytoplasm (FIGS. 7A and 7C). […] Consistent with this observation MAPKAP-K1a, when overexpressed in cells, was largely localised in the cytoplasm (FIG. 7B). Moreover, no significant translocation of MAPKAP-K1a to the nucleus was observed following TPA stimulation of cells (FIGS. 7B and 7E) which induces 100-fold activation of this kinase (data not shown).
# MAPKAP-K1 = assay: NGF-induced activation of MAPKAP-K1 in PC12 cells
# T1 sequence (Q63531 whole entry): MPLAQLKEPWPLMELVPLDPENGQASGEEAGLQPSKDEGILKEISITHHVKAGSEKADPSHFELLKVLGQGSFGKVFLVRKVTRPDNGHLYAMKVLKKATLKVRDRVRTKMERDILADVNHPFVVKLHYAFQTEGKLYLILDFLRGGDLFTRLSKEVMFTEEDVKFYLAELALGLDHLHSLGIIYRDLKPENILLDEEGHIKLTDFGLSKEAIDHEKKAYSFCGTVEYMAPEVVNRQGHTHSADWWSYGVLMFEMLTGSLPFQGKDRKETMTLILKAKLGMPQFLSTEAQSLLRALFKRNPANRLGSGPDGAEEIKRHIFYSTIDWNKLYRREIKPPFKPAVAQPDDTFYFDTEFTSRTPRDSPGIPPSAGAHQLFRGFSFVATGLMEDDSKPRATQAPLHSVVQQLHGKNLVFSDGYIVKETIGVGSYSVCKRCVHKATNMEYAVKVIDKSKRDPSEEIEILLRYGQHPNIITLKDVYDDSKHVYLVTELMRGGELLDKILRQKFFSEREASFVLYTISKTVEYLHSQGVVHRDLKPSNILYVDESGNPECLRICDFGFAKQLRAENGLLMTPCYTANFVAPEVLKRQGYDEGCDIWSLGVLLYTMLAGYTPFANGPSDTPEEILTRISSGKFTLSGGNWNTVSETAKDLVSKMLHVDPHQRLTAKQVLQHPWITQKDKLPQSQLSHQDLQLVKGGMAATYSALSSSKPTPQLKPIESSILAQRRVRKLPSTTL
compound,measurement,setting,value
CC(C)C[C@H](NC(=O)[C@@H](NC(=O)[C@H](CCCNC(=N)N)NC(=O)[C@H](CC(N)=O)NC(=O)[C@H](CCCNC(=N)N)NC(=O)[C@H](CCCCN)NC(=O)[C@@H](N)CCCCN)[C@@H](C)O)C(=O)N[C@@H](CO)C(=O)N[C@H](C(=O)N[C@@H](C)C(=O)O)C(C)C (H-KKRNRTLSVA-OH),Km for phosphorylation by MAPKAP-K1a,MAPKAP-K1a [1],almost identical Km and Vmax values as for Crosstide
same,Km for phosphorylation by MAPKAP-K1b,MAPKAP-K1b,almost identical Km and Vmax values as for Crosstide
CC[C@H](C)[C@H](NC(=O)[C@@H](N)CCC(=O)O)C(=O)N[C@@H](CC(C)C)C(=O)N[C@@H](CO)C(=O)N[C@@H](CCCNC(=N)N)C(=O)N[C@@H](CCCNC(=N)N)C(=O)N1CCC[C@H]1C(=O)N[C@@H](CO)C(=O)N[C@@H](Cc1ccc(O)cc1)C(=O)N[C@@H](CCCNC(=N)N)C(=O)N[C@@H](CCCCN)C(=O)O [CREBtide] (H-EILSRRPSYRK-OH),Km,MSK1 [2],< 0.1 µM
C[C@H](NC(=O)[C@H](Cc1ccccc1)NC(=O)[C@H](CO)NC(=O)[C@H](CO)NC(=O)[C@@H](NC(=O)[C@H](CCCNC(=N)N)NC(=O)[C@@H]1CCCN1C(=O)[C@H](CCCNC(=N)N)NC(=O)CN)[C@@H](C)O)C(=O)N[C@@H](CCC(=O)O)C(=O)NCC(=O)O [Crosstide] (H-GRPRTSSFAEG-OH),Km,MAPKAP-K1a [1],2 to 3 µM
same,Km,MSK1 [2],2 to 3 µM
same,Km,MAPKAP-K1b,2 to 3 µM
"CCCCCCCCCCCCCC(=O)O[C@@H]1[C@@H](C)[C@@]2(O)[C@@H](C=C(CO)C[C@]3(O)C(=O)C(C)=C[C@@H]23)[C@@H]2C(C)(C)[C@]12OC(C)=O [TPA, 12-O-tetradecanoylphorbol 13-acetate]",activation of transfected wild type MSK1,MSK1 [3],200 fold
same,activation of overexpressed MAPKAP-K1a,MAPKAP-K1a [4],100 fold
NGF: nerve growth factor used as cell stimulus,activation of MAPKAP-K1 by NGF,MAPKAP-K1,five-fold
